Read-outs that look alike come from different tables or passages of the source.
Columns and labels:
[1] = system: synaptosomes of cortex of rat brain; assay: Glutamate-induced 45Ca2+ uptake into synaptosomes; type: biochemical, Wistar rats; conditions: for glutamate-induced 45Ca2+ uptake into synaptosomes of rat cortex, % of control: 50-100 μM; for % Ca of control (control-100%), glutamate-induced 45Ca2+ uptake into synaptosomes: rat cortex synaptosomes
Procedure: Synaptosomes were obtained from cerebral cortex of newborn (9-10 days) Wistar rats using standard Hajos method. The brain was homogenized with 10 volumes of cooled 0.32 M sucrose at 900 rpm. The homogenate was centrifuged at 1500 g for 10 min. and the resulted supernatant was centrifuged at 10000 g for 20 min. The radioactive label was accumulated by suspension of the synaptosomal P2-fraction in the incubation buffer A having the following composition: 132 mM NaCl, 5 mM KCl, 5 mM HEPES, 10 mM glucose, pH 7.4 (protein concentration of approximately 1.5-2 mg/ml). The mixture was further incubated for 5 min with 200 μM glutamate at 37° C. and then ^45Ca^2+ uptake was stopped by filtration through GF/B filters (Whatman, England) followed by three washes with cold buffer B (145 mM KCl, 10 mM Tris, 5.4 mM Trilon B, pH 7.4). The radioactivity probes were analyzed by fluid scintillation beta-analyzer (TriCarb, Perkin Elmer). All tests were performed in three parallel trials in 2-3 independent experiments. The amount of ^45Ca^2+ uptake was estimated by calculating the difference of radioactive label during the stimulation with glutamate and without the stimulation with agonist.
Specific ^45Ca^2+ uptake was estimated using the following equation: K(43/21)=[(Ca4−Ca3)/(Ca2−Ca1)]100%, where
Ca1—^45Ca^2+ uptake for the Control (without glutamate and the compound tested),
[…] glutamate-induced ^45Ca^2+ uptake (glutamate only),
Ca3—^45Ca^2+ uptake in the presence of the compound tested (without glutamate),
Ca4—^45Ca^2+ uptake in the presence of glutamate and the testing compound.
Statistical analysis of the results was performed using Student's t-test.

rat brain mitochondria [2] = assay: Mitochondrial membrane potential (safranine test); type: biochemical, Wistar rats; conditions: at concentrations up to 100 mkM
Procedure: The same experimental conditions were used for the assessment of alterations of the mitochondrial membrane potential, except that safranine was included in incubation medium at a final concentration of 10 mkM and succinate was added before the compounds of the invention. This concentration of safranine was determined before hand as the optimal compromise between signal/baseline ratio and interference of safranine itself with swelling induced by Ca/Pi (safranine tended to enhance Ca/Pi-induced swelling at concentrations above 20 mkM). Changes in the status of the mPT pore were assessed spectrophotometrically at 554 and 524 nm in a cuvette in a Beckman DU 640 spectrophotometer. A554-524 represents the characteristics of mitochondrial potential and A554-characteristics of mitochondrial swelling.

rat brain mitochondria [3] = assay: Ca2+-induced swelling of mitochondria (MPT pore opening); type: biochemical, Wistar rats; conditions: for A540 increase in mitochondrial suspension after addition of 100 μM of compound: 100 μM compound
Procedure: Rat liver and brain mitochondria were prepared from male Wistar rats. The rats were euthanized in a CO2 chamber followed by decapitation the procedure being in compliance with the Guidelines for Animal Experiments at IPAC RAS. […]
Brain mitochondria were isolated from the pooled forebrains of two rats. The modified method of Sims was used to isolate and purify brain mitochondria in a Percoll gradient. The brain was homogenized in “buffer A” (225 mM mannitol, 75 mM sucrose, 5 mM HEPES, 1 mM EGTA, pH 7.4 [KOH]) and centrifuged for 10 min at 1300 g. The supernatant was centrifuged for 10 min at 10000 g, and then the pellet was suspended in 15% Percoll and layered on a discontinuous gradient consisting of 40 and 23% Percoll, respectively, which was then centrifuged for 10 min at 30000 g without using brakes. The mitochondria were collected from the interface of the lower two layers and after resuspension in “buffer A”, the suspension was centrifuged at 16600 g for 10 min, then the pellet was resuspended in “buffer A”, BSA (10 mg/mL) was added to bind free fatty acids; and the suspensions was centrifuged again at 6300 g for 10 min. Following centrifugation the pelleted mitochondria were re-suspended in isolation medium without EGTA to achieve a protein concentration of 15-20 mg/ml.
Mitochondrial swelling caused by influx of solutes through open PT pores results in an increase in light transmission (i.e., a reduced turbidity). This turbidity change offers a convenient and frequently used assay of the MPT by measurement of absorbance in mitochondrial suspensions. In the present study, the MPT induced by Ca^2+ and inorganic phosphate (Ca/Pi) was monitored by absorbance changes at 540 nm in a cuvette in a Beckman DU 640 spectrophotometer in 1 ml of buffer A plus 0.8 μM rotenone, 5 mM succinate, 1 mM KH2PO4 and 0.5 mg or 0.2 mg protein of isolated liver or brain mitochondria, accordingly. Reaction was started by the addition of triggering agent (Ca^2+). Pre-treatment and reaction were performed at 30° C. Swelling rate was quantified as ΔA540/min/mg, calculated, in all cases, from a tangent to the steepest portion of the plot of A540 versus time.
Ca^2+-induced Swelling of mitochondria was used as the primary screening test for compounds influence on MPT pore opening. […] But the inhibition of swelling may be connected not only with direct inhibition of MPT pore opening but also with the impairment of respiratory function of mitochondria and with the compounds action on calcium transport into mitochondria. For the primary estimation of these possibilities the mitochondrial membrane potential and calcium retention capacity of mitochondria were measured. […] New synthesized compounds (except C-14 and C-43) alone induced an increase of brain mitochondria suspension turbidity. The mechanism of such effect needs additional investigations.

AMPA receptors = assay: AMPA-receptor activity: kainic acid-induced currents in Purkinje cells (patch-clamp); type: cell-based, rat; conditions: mean±SEM, control=100%
Procedure: The analysis of effects of the testing compounds on AMPA receptors was carried out using an electrophysiological patch-clamp method in whole cell configuration (Hamill et al., 1980) of the Purkinje cell fresh isolated from the cerebellum of juvenile rats (12-15 days). The isolation was carried out using a modified method (Kaneda et al., 1988) in which cerebral 400-600 μm sections were incubated for 60 min in the temperature controlled chamber in 10 mL of buffer solution (150 mM NaCl, 5 mM KCl, 2 mM CaCl2, 2 mM MgSO4.7H2O, 10 mM HEPES, 15 mM glucose, pH 7.42). The incubation solution was exchanged with the incubation buffer with pronase (2 mg/mL) and collagenase (1 mg/mL) for 70 min. After a 20 min wash with the original buffer, all sections were placed into the Petri dish and were separated using a Pasteur pipette. All solutions were constantly aerated with 100% O2 at 34° C. The composition of extracellular saline was: 150 mM NaCl, 5 mM KCl, 2.6 mM CaCl2, 2 mM MgSO4.7H2O, 10 mM HEPES, 15 mM glucose, pH 7.36. The transmembrane current was induced as a result of the activation of AMPA receptors by a superfusion with the agonist solution (kainic acid). The currents were measured using borosilicate microelectrodes (resistance […]) filled with 100 mM KCl, 11 mM EGTA, 1 mM CaCl2, 1 mM MgCl2, 10 mM HEPES, 5 mM ATP, pH 7.2. The currents were registered using EPC-9 (HEKA, Germany) and recorded with Pulse software package which was also purchased from HEKA. The analysis of observations was carried out using Pulsefit (HEKA, Germany) and the statistical significance was analyzed using a Student's T-test criteria. Data are presented as mean±SEM in % of control values.
Compounds of the invention were tested in 3-5 neurons. Every concentration of compound was repeated three-four times in every neuron. Data are presented as mean±SEM in % of Control values (Table 13+14, FIGS. 8-12). Control value=100%.

[4] = concentration reducing to 50% the initial rate of turbidity fall after calcium addition, read-out: IC50, decrease of calcium-induced swelling of brain mitochondria
[5] = read-out: IC50, Ca2+-induced (25-50 μM) swelling of brain mitochondria, rat brain mitochondria, Ca2+ 25-50 μM

| IC50 (rat brain mitochondria [3]; [4]) | IC50 (rat brain mitochondria [3]; [5]) | Structure (SMILES) | inhibition of glutamate-induced 45Ca2+ uptake into synaptosomes ([1]; 0.5 μM) | glutamate-induced 45Ca2+ uptake into synaptosomes of rat cortex, % of control [1] | % Ca of control (control-100%), glutamate-induced 45Ca2+ uptake into synaptosomes ([1]; compound 0.1 μM) | % Ca of control (control-100%), glutamate-induced 45Ca2+ uptake into synaptosomes ([1]; compound 0.5 μM) | % Ca of control (control-100%), glutamate-induced 45Ca2+ uptake into synaptosomes ([1]; compound 1 μM) | % Ca of control (control-100%), glutamate-induced 45Ca2+ uptake into synaptosomes ([1]; compound 5 μM) | % Ca of control (control-100%), glutamate-induced 45Ca2+ uptake into synaptosomes ([1]; compound 10 μM) | % Ca of control (control-100%), glutamate-induced 45Ca2+ uptake into synaptosomes ([1]; compound 50 μM) | % Ca of control (control-100%), glutamate-induced 45Ca2+ uptake into synaptosomes ([1]; compound 100 μM) | depolarization of brain mitochondria (rat brain mitochondria [2]) | A540 increase in mitochondrial suspension after addition of 100 μM of compound (rat brain mitochondria [3]; rat brain mitochondria) | kainic acid-induced currents in Purkinje cells, % of Control values (AMPA receptors; compound 10^−5 M) | kainic acid-induced currents in Purkinje cells, % of Control values (AMPA receptors; compound 10^−6 M) | kainic acid-induced currents in Purkinje cells, % of Control values (AMPA receptors; compound 10^−7 M) | kainic acid-induced currents in Purkinje cells, % of Control values (AMPA receptors; compound 10^−8 M) | kainic acid-induced currents in Purkinje cells, % of Control values (AMPA receptors; compound 10^−9 M) | concentration at which glutamate-induced 45Ca2+ uptake into synaptosomes was not affected [1] | kainic acid-induced currents in Purkinje cells, % of Control values (AMPA receptors; compound 3 × 10^−5 M) |
| --- | --- | --- | --- | --- | --- | --- | --- | --- | --- | --- | --- | --- | --- | --- | --- | --- | --- | --- | --- | --- |
| ~94 µM | 93.9 ± 16.4 µM | CN1CCc2c(c3ccccc3n2CCc2nc(-c3ccncc3)cs2)C1 [Compound C1-4] | ~12.6% | ~131% | 99.1 ± 2.5% | 87.4 ± 3.7% | 96.2 ± 5.0% | 94.9 ± 5.7% | 94.3 ± 2.7% | 112.7 ± 10.1% | 131.5 ± 0.1% | No depolarization | 1 rel.units | 100 ± 9% | 109 ± 12% | 114 ± 5% | 119 ± 6% | 129 ± 9% | – | – |
| ~76 µM | 76 ± 12 µM | CN1CCc2c(c3ccccc3n2CCc2noc(-c3ccncc3)n2)C1 [Compound C4-3] | – | ~126% | 93.2 ± 3.0% | 92.1 ± 3.3% | 101.0 ± 1.0% | 93.7 ± 6.8% | 94.7 ± 6.9% | 117.9 ± 6.0% | 125.6 ± 3.9% | No depolarization | 1 rel.units | 100 ± 6% | 139 ± 11% | 149 ± 15% | 145 ± 12% | 100 ± 3% | 0.1 to 50 µM | 80 ± 10% |

From patent US9096591B2, “Tetracyclic compounds” (Medivation Technologies, Inc., priority 2007, dated 2015)
